Results on four compounds are retold here after article PMC3876054, “Tyrosol and Its Analogues Inhibit Alpha-Melanocyte-Stimulating Hormone Induced Melanogenesis” (International Journal of Molecular Sciences, 2013).

For assay [1], the target named is T1, mushroom tyrosinase (Agaricus bisporus, UniProt C7FF04).
T1 construct: gene PPO3
The assay can be described thus: spectrophotometric dopachrome assay with L-tyrosine; % inhibition at […]. It counts as biochemical. The following applies: read-out: % inhibition at 4 mM.

Assay [2] deals with T1, mushroom tyrosinase. The assay is described as above. It is filed as biochemical. The conditions noted are these: read-out: % inhibition at 0.4 mM.

T1 sequence (C7FF04 2-392): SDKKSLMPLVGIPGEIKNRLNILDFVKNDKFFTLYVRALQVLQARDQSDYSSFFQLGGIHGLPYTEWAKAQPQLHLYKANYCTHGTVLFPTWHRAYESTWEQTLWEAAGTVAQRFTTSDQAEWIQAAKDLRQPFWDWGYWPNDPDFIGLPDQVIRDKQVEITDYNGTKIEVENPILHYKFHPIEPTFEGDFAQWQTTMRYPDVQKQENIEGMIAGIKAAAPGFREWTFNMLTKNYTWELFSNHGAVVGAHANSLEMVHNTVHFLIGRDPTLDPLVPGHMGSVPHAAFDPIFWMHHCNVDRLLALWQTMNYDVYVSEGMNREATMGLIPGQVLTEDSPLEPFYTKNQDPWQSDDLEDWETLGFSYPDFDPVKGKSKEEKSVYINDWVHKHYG

As for `OCCc1ccc(O)cc1` [compound 1, tyrosol], in assay [1], the inhibition (in general, the change of the read-out against control, counted positive when it falls) at 4000 µM stood at 42.5%.
Same read-out and setting: for `OCCc1cccc(O)c1` [compound 2, 2-(3-hydroxyphenyl)ethanol] the value was 45.3%; for `Cc1ccc(CCO)cc1` [compound 10, 2-(4-methylphenyl)ethanol], 46.7%.
As to `OC[C@H]1O[C@@H](OCCc2ccc(O)cc2)[C@H](O)[C@@H](O)[C@@H]1O` [compound 11, salidroside], in assay [2], the inhibition at 400 µM came out at 22.2%.
